Here are results for 18 molecules from US9676782B2, “Substituted pyrazolo[1,5-a]pyrazines as negative allosteric modulators of metabotropic glutamate receptor 3” (Vanderbilt University, priority 2014, dated 2017).

The target in one assay is rat mGlu5 (Rattus norvegicus (Rat), UniProt P31424). Nature of the assay: mGlu5 Ca2+ flux assay. Type of assay: cell-based. The settings on record: for Fold selectivity (mGlu3 vs. mGlu5): ratio of rat mGlu5 EC50 or IC50 to rat mGlu3 IC50; for Emax at 30 µM: read-out: rat mGlu5 Glu max (%). Here is the method:
(§1) The cells were grown overnight at 37° C. in the presence of 5% CO2. […] Dye was removed, 20 μL of assay buffer was added, and the plate was incubated for 5 minutes at room temperature. Ca^2+ flux was measured using the Functional Drug Screening System (FDSS7000, Hamamatsu, Japan). […] All test compounds were dissolved and diluted to a concentration of 10 mM in 100% DMSO. […] Calcium fluorescence measures were recorded as fold over basal fluorescence; raw data was then normalized to the maximal response to glutamate. […] The raw data file containing all time points was used as the data source in the analysis template. This was saved by the FDSS as a tab-delimited text file. Data were normalized using a static ratio function (F/F0) for each measurement of the total 360 values per well divided by each well's initial value. […] This is sufficient time to capture the peak amplitude of the cellular calcium response. […] EC50 values for test compounds were generated by fitting the normalized values versus the log of the test compound concentration (in mol/L) using a 4 parameter logistic equation where none of the parameters were fixed. Each of the three values collected at each concentration of test compound were weighted evenly.
(Calcium assays in cells follow changes in intracellular calcium, usually with a dye or a luminescent sensor.)

A further assay deals with rat mGlu3 (Rattus norvegicus (Rat), UniProt P31422). Nature of the assay: mGlu3 Ca2+ flux assay. The settings on record: for remaining activity at 30 µM: amplitude of response at 30 μM test compound as % of maximal response to glutamate, read-out: rat mGlu3 Glu max (%). In kind it is cell-based. The method, then: as §1, with “for 10” for “for 5”
rat mGlu3, sequence (P31422 23-879): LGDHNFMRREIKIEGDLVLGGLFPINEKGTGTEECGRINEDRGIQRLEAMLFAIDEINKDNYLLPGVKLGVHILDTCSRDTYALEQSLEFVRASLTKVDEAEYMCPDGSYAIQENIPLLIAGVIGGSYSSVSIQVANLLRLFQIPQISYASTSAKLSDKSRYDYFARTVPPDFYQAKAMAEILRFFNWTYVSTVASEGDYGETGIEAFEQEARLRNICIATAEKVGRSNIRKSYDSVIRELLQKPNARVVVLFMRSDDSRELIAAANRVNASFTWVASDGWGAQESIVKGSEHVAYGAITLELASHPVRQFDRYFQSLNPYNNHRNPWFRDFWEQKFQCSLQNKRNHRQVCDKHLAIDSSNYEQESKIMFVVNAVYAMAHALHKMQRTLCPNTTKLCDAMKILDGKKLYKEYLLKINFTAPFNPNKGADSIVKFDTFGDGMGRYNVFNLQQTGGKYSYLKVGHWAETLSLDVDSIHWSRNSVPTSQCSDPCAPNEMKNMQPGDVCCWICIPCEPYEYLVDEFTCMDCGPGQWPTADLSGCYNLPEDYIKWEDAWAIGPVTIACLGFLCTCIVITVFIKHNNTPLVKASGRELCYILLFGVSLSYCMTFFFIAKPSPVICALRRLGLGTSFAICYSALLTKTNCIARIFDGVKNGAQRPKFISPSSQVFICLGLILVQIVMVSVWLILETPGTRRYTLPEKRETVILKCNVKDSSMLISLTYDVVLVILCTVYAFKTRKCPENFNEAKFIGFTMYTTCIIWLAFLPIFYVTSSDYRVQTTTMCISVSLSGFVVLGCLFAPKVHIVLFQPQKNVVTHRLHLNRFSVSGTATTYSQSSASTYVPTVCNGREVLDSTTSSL
Setting [1] is: read-out: rat mGlu5 EC50 or IC50.
The mark [2] stands for this setting: NAM potency, decrease of glutamate EC80 response, >30,000 = no measurable activity, >10,000 = no plateau, read-out: rat mGlu3 IC50.
Where [3] appears, read: PAM, amplitude of response at 30 μM test compound as % of maximal response to glutamate.

SMILES strings stand for the structures. Where two headings read alike, the source gives them in different places.

rat mGlu5, sequence (P31424 21-1203): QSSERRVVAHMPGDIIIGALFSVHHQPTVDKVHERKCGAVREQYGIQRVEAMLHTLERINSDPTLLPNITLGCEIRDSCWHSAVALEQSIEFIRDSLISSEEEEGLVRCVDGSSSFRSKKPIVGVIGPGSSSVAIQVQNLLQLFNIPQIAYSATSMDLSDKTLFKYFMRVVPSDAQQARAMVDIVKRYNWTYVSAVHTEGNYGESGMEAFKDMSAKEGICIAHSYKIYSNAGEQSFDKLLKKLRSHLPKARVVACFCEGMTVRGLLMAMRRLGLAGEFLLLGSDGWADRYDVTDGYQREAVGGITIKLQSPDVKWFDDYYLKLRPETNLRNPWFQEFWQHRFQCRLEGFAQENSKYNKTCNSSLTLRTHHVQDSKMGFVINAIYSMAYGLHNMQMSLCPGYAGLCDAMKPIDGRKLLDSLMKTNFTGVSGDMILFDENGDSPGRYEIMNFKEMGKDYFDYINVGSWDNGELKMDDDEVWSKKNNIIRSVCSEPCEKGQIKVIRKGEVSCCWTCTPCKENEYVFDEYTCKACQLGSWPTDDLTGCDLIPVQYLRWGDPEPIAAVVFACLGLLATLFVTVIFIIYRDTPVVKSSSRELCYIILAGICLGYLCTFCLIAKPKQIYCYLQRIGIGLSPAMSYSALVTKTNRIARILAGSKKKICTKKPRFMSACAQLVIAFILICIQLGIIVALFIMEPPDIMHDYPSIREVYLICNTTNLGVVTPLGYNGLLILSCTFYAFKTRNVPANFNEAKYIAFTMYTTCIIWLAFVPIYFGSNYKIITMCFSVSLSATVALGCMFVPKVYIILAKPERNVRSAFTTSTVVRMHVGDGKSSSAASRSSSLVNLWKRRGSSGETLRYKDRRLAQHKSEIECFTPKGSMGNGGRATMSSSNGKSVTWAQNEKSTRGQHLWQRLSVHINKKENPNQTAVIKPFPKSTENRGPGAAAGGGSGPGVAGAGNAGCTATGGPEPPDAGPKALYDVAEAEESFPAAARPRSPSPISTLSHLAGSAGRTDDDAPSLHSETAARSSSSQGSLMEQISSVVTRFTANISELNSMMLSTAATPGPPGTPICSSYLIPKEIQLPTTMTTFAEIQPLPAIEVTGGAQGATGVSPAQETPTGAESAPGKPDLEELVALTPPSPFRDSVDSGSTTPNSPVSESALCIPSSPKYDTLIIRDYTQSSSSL

As to `C[C@@H]1CN(c2ccc(F)cc2)C(=O)c2cc(CNc3ccc(OC(F)F)cc3)nn21` [Compound 64, (R)-2-(((4-(difluoromethoxy)phenyl)amino)methyl)-5-(4-fluorophenyl)-7-methyl-6,7-dihydropyrazolo[1,5-a]pyrazin-4(5H)-one], the “Fold selectivity (mGlu3 vs. mGlu5)” value at rat mGlu5 is reported as more than 22. In addition, at rat mGlu5 (setting [1]), the EC50 (as a rule, the concentration that produces a half-maximal response) is more than 30000 nM. For the same molecule, the 50% inhibitory concentration (IC50) (as a rule, the concentration that gives 50% inhibition) at rat mGlu3 (setting [2]) turned out to be 1350 nM. Further, the remaining activity at 30 µM at rat mGlu3 is 2.46%.
Take `CN(Cc1cc2n(n1)CCN(c1ccc(F)cc1)C2=O)c1ccc(F)cc1` [Compound 89, 5-(4-fluorophenyl)-2-(((4-fluorophenyl)(methyl)amino)methyl)-6,7-dihydropyrazolo[1,5-a]pyrazin-4(5H)-one]: the “Fold selectivity (mGlu3 vs. mGlu5)” value at rat mGlu5 was more than 64. For the same molecule, the EC50 at rat mGlu5 (setting [1]) was more than 30000 nM. The IC50 at rat mGlu3 (setting [2]) was determined as 467 nM. Also, the remaining activity at 30 µM on rat mGlu3 was 1.29%.
Take `COc1ccc(N(C)Cc2cc3n(n2)CCN(c2cc(F)ccc2Cl)C3=O)cc1` [Compound 129, 5-(2-chloro-5-fluorophenyl)-2-(((4-methoxyphenyl)(methyl)amino)methyl)-6,7-dihydropyrazolo[1,5-a]pyrazin-4(5H)-one]: the “Fold selectivity (mGlu3 vs. mGlu5)” value at rat mGlu5 was more than 14. The EC50 at rat mGlu5 (setting [1]) is more than 30000 nM. Moreover, the IC50 at rat mGlu3 (setting [2]) is 2020 nM. Also, the remaining activity at 30 µM at rat mGlu3 was 2.02%.
On to `O=C1c2cc(CNc3cccc(Cl)c3)nn2CCN1c1ccc(F)cc1` [Compound 9, 2-(((3-chlorophenyl)amino)methyl)-5-(4-fluorophenyl)-6,7-dihydropyrazolo[1,5-a]pyrazin-4(5H)-one], for which the Emax at 30 µM at rat mGlu5 (setting [3]) was 82.8%. At rat mGlu5, the “Fold selectivity (mGlu3 vs. mGlu5)” value worked out at 2.74. The EC50 on rat mGlu5 (setting [1]) is 3320 nM. Besides, the IC50 at rat mGlu3 (setting [2]) was determined as 1210 nM. In addition, at rat mGlu3, the remaining activity at 30 µM was 2.95%.
For `O=C1c2cc(CNc3ccc(F)cc3)nn2CCN1c1ccc(F)cc1` [Compound 13, 5-(4-fluorophenyl)-2-(((4-fluorophenyl)amino)methyl)-6,7-dihydropyrazolo[1,5-a]pyrazin-4(5H)-one], in that order: 56.6%, 2.83, 3260 nM, 1150 nM and 2.22%.
For the molecule `COc1ccccc1NCc1cc2n(n1)CCN(c1ccc(F)cc1)C2=O` [Compound 6, 5-(4-fluorophenyl)-2-(((2-methoxyphenyl)amino)methyl)-6,7-dihydropyrazolo[1,5-a]pyrazin-4(5H)-one], the “Fold selectivity (mGlu3 vs. mGlu5)” value on rat mGlu5 is more than 9.8. In addition, at rat mGlu5 (setting [1]), the EC50 is more than 30000 nM. The IC50 at rat mGlu3 (setting [2]) is 3040 nM. Moreover, the remaining activity at 30 µM on rat mGlu3 came out at 0.98%.
Take `CN(Cc1cc2n(n1)CCN(c1ccc(F)cc1)C2=O)c1ccc(Br)cc1` [Compound 91, 2-(((4-bromophenyl)(methyl)amino)methyl)-5-(4-fluorophenyl)-6,7-dihydropyrazolo[1,5-a]pyrazin-4(5H)-one]: at rat mGlu5, the “Fold selectivity (mGlu3 vs. mGlu5)” value was more than 50. For the same molecule, on rat mGlu5 (setting [1]), the EC50 was more than 30000 nM. In addition, at rat mGlu3 (setting [2]), the IC50 came out at 592 nM. Further, at rat mGlu3, the remaining activity at 30 µM came to 2.53%.
With `O=C1c2cc(CNc3ccc(OC(F)F)cc3F)nn2CCN1c1ccccn1` [Compound 151, 2-(((4-(difluoromethoxy)-2-fluorophenyl)amino)methyl)-5-(pyridin-2-yl)-6,7-dihydropyrazolo[1,5-a]pyrazin-4(5H)-one], at rat mGlu5, the “Fold selectivity (mGlu3 vs. mGlu5)” value is given as more than 31. In addition, on rat mGlu5 (setting [1]), the EC50 is more than 30000 nM. Also, on rat mGlu3 (setting [2]), the IC50 turned out to be 943 nM. Moreover, the remaining activity at 30 µM at rat mGlu3 was 1.14%.
On to `O=C1c2cc(CNc3ccccn3)nn2CCN1c1ccc(F)cc1` [Compound 156, 5-(4-fluorophenyl)-2-((pyridin-2-ylamino)methyl)-6,7-dihydropyrazolo[1,5-a]pyrazin-4(5H)-one], for which the concentration for half-maximal inhibition (IC50) at rat mGlu5 (compound noted as NAM or partial antagonist (PAnt) at mGlu5, glutamate EC80, read-out: rat mGlu5 EC50 or IC50) was more than 10000 nM; at rat mGlu3 (setting [2]) it was 3190 nM. Further, the Emax at 30 µM on rat mGlu5 (compound noted as NAM or partial antagonist (PAnt) at mGlu5, response at 30 μM as % of maximal glutamate response) was 49.1%. The “Fold selectivity (mGlu3 vs. mGlu5)” value on rat mGlu5 is given as more than 3.1. Moreover, at rat mGlu3, the remaining activity at 30 µM was -1.17%.
Take `CN(Cc1cc2n(n1)CCN(c1ccc(F)cc1)C2=O)c1cccc(F)c1` [Compound 86, 5-(4-fluorophenyl)-2-(((3-fluorophenyl)(methyl)amino)methyl)-6,7-dihydropyrazolo[1,5-a]pyrazin-4(5H)-one]: the Emax at 30 µM at rat mGlu5 (setting [3]) is 110%. For the same molecule, the “Fold selectivity (mGlu3 vs. mGlu5)” value at rat mGlu5 is reported as 13.06. At rat mGlu5 (setting [1]), the EC50 is 7760 nM. At rat mGlu3 (setting [2]), the IC50 stood at 594 nM. Also, at rat mGlu3, the remaining activity at 30 µM turned out to be 1.68%.
For `O=C1c2cc(CNc3ccc(OC(F)F)cc3F)nn2CCN1c1cccc(F)n1` [Compound 138, 2-(((4-(difluoromethoxy)-2-fluorophenyl)amino)methyl)-5-(6-fluoropyridin-2-yl)-6,7-dihydropyrazolo[1,5-a]pyrazin-4(5H)-one], at rat mGlu5, the “Fold selectivity (mGlu3 vs. mGlu5)” value was more than 36. The EC50 on rat mGlu5 (setting [1]) is more than 30000 nM. Further, at rat mGlu3, the remaining activity at 30 µM worked out at 2.05%. In addition, the IC50 at rat mGlu3 (read-out: rat mGlu3 IC50) was 821 nM.
For the molecule `CN(Cc1cc2n(n1)CCN(c1ccc(F)cc1)C2=O)c1ccc(F)cc1` [drawing 32 X = NMe], the EC50 at rat mGlu5 (Table 2 compounds with X = NMe, read-out: mGlu5 EC50) was more than 30000 nM. Further, on rat mGlu3 (Table 2 compounds with X = NMe, read-out: mGlu3 IC50), the IC50 worked out at 467 nM. Besides, the “mGlu3 Glu max” value on rat mGlu3 (Table 2 compounds with X = NMe, response at 30 μM compound as percentage of maximal glutamate response) came out at 1%.
Turning to `COc1ccc(N(C)Cc2cc3n(n2)CCN(c2cc(F)ccc2F)C3=O)cc1` [Compound 106, 5-(2,5-difluorophenyl)-2-(((4-methoxyphenyl)(methyl)amino)methyl)-6,7-dihydropyrazolo[1,5-a]pyrazin-4(5H)-one], the “Fold selectivity (mGlu3 vs. mGlu5)” value at rat mGlu5 is more than 29. For the same molecule, at rat mGlu5 (setting [1]), the EC50 is more than 30000 nM. Further, the remaining activity at 30 µM at rat mGlu3 was found to be 0.79%. The IC50 on rat mGlu3 (read-out: rat mGlu3 IC50) was found to be 1020 nM.
`CN(Cc1cc2n(n1)CCN(c1ccc(F)cc1)C2=O)c1ccc(C#N)cc1` [Compound 93, 4-(((5-(4-fluorophenyl)-4-oxo-4,5,6,7-tetrahydropyrazolo[1,5-a]pyrazin-2-yl)methyl)(methyl)amino)benzonitrile]: on rat mGlu5 (setting [3]), the Emax at 30 µM was 57.2%. On rat mGlu5, the “Fold selectivity (mGlu3 vs. mGlu5)” value is more than 8.8. For the same molecule, at rat mGlu5 (setting [1]), the EC50 is more than 10000 nM. The IC50 on rat mGlu3 (setting [2]) was 1130 nM. In addition, the remaining activity at 30 µM on rat mGlu3 was 1.47%.
`O=C1c2cc(CNc3cc(F)ccc3F)nn2CCN1c1ccc(F)cc1` [Compound 29, 2-(((2,5-difluorophenyl)amino)methyl)-5-(4-fluorophenyl)-6,7-dihydropyrazolo[1,5-a]pyrazin-4(5H)-one]: the Emax at 30 µM at rat mGlu5 (setting [3]) was determined as 87.5%. At rat mGlu5, the “Fold selectivity (mGlu3 vs. mGlu5)” value was determined as 3.23. Moreover, the EC50 at rat mGlu5 (setting [1]) is 1640 nM. The IC50 on rat mGlu3 (setting [2]) was 508 nM. In addition, at rat mGlu3, the remaining activity at 30 µM was 2.45%.
`Cc1ccc(NCc2cc3n(n2)CCN(c2ccc(F)cc2)C3=O)nc1` [Compound 159, 5-(4-fluorophenyl)-2-(((5-methylpyridin-2-yl)amino)methyl)-6,7-dihydropyrazolo[1,5-a]pyrazin-4(5H)-one]: on rat mGlu5, the “Fold selectivity (mGlu3 vs. mGlu5)” value is listed as more than 16. At rat mGlu5 (setting [1]), the EC50 is more than 30000 nM. For the same molecule, the IC50 on rat mGlu3 (setting [2]) amounted to 1770 nM. For the same molecule, the remaining activity at 30 µM at rat mGlu3 is 0.86%.
On to `O=C1c2cc(CNc3ccc(OC(F)F)cc3F)nn2CCN1c1cccc(F)c1` [Compound 95, 2-(((4-(Difluoromethoxy)-2-fluorophenyl)amino)methyl)-5-(3-fluorophenyl)-6,7-dihydropyrazolo[1,5-a]pyrazin-4(5H)-one], for which, on rat mGlu5 (setting [3]), the Emax at 30 µM was 31.1%. In addition, the “Fold selectivity (mGlu3 vs. mGlu5)” value on rat mGlu5 was more than 17. Also, the EC50 at rat mGlu5 (setting [1]) was more than 10000 nM. Further, the concentration for half-maximal inhibition (IC50) on rat mGlu3 (setting [2]) was 588 nM. The remaining activity at 30 µM at rat mGlu3 turned out to be 3.43%.
On to `O=C1c2cc(CNc3ccc(OC(F)F)cc3F)nn2CCN1c1ccc(F)cn1` [Compound 146, 2-(((4-(difluoromethoxy)-2-fluorophenyl)amino)methyl)-5-(5-fluoropyridin-2-yl)-6,7-dihydropyrazolo[1,5-a]pyrazin-4(5H)-one], for which the “Fold selectivity (mGlu3 vs. mGlu5)” value on rat mGlu5 is given as more than 51. Besides, the half-maximal effective concentration (EC50) on rat mGlu5 (setting [1]) is more than 30000 nM. Moreover, the IC50 at rat mGlu3 (setting [2]) stood at 578 nM. The remaining activity at 30 µM at rat mGlu3 stood at 2.03%.
